Measured values published in ChEMBL document CHEMBL1132307, “(2R,1'S,2'R,3'S)-2-(2'-Carboxy-3'-phenylcyclopropyl)glycine (PCCG-13), the first potent and selective competitive antagonist of phospholipase D-coupled metabotropic glutamate receptors: asymmetric synthesis and preliminary biological properties” (J Med Chem, 1999).

Columns and labels:
Format in all cases: functional, tissue-based
Settings in all cases: Hippocampus
[1] = Agonistic activity against phospholipase D (PLD) was determined in adult rat hippocampal slices
[2] = Antagonistic activity against phospholipase D (PLD) was determined in adult rat hippocampal slices
[3] = Antagonistic activity against phospholipase C (PLC) was determined in adult rat hippocampal slices

| IC50 [2] | IC50 [3] | SMILES | EC50 [1] |
| --- | --- | --- | --- |
| 530 µM |  | CC(N)(C(=O)O)c1ccc(C(=O)O)cc1 (stereo unspecified) | 110 µM |
| 0.025 µM | > 300 µM | NC(C(=O)O)[C@@H]1[C@H](C(=O)O)[C@H]1c1ccccc1 (stereo partly specified) |  |
|  |  | N[C@@]1(C(=O)O)CC[C@@H](C(=O)O)C1 | 30 µM |
| 70 µM |  | N[C@H](C(=O)O)c1cc(O)cc(O)c1 |  |
